The text below walks through data of the OPERA property sets (Mansouri et al. 2018).

Usually logP stands for a log measure of how a compound divides between an organic and an aqueous phase. Read a high logP as a more lipophilic compound.

Turning to `O=c1ccocc1O`, the logP is -0.92.

With `NCCn1ccc(=O)c(O)c1`, the logP is -0.66.

`CCn1cccc(O)c1=O` registered a logP of 0.2.

For the compound `CCCn1cccc(O)c1=O`, the logP worked out at 0.69.

For `COCc1cc(=O)c(O)co1`, the logP was -0.62.

On to `CCCCOCc1cc(=O)c(O)co1`, for which the logP stood at 0.78.

The compound `CCOCc1cc(=O)c(O)co1` yielded a logP of -0.38.

Compound `Cc1cc(=O)c(O)co1` registered a logP of -0.59.

`CCc1occc(=O)c1O` came in with a log partition coefficient (logP) of 0.63.

`CCCOCc1cc(=O)c(O)co1`: the logP was found to be 0.3.

Compound `CCc1oc(C)cc(=O)c1O` came in with a logP of 1.07.

`Cc1cc(=O)c(O)c(C)o1` returned a logP of 0.44.
